Values after ≈ are worked out from the molar mass of the structure shown. Where a name gives a salt, the structure may show the parent alone. Read-outs that look alike come from different tables or passages of the source.
Legend:
[1] = system: Bacillus subtilis ATCC 6633; experiment: MIC, agar serial dilution test; assay type: cell-based
[2] = system: Staphylococcus aureus A55; experiment: MIC, agar serial dilution test; assay type: cell-based
[3] = system: Staphylococcus aureus A321; experiment: MIC, agar serial dilution test; assay type: cell-based
[4] = system: Streptococcus haemolyticus A266; experiment: MIC, agar serial dilution test; assay type: cell-based
[5] = system: Streptococcus faecalis L 80; experiment: MIC, agar serial dilution test; assay type: cell-based; conditions: Enterococcus faecalis
[6] = system: Diplococcus pneumoniae L 54; experiment: MIC, agar serial dilution test; assay type: cell-based; conditions: Streptococcus pneumoniae
[7] = system: Brucella melitensis A488; experiment: microbe, parasite or virus in culture; assay type: cell-based; conditions: A488, 24 h
[8] = system: Pasteurella multocida A723; experiment: MIC, agar serial dilution test; assay type: cell-based
[9] = system: Klebsiella pneumoniae A809; experiment: MIC, agar serial dilution test; assay type: cell-based
[10] = system: Escherichia coli 65161; experiment: protection test in mice, Escherichia coli; assay type: in vivo, female mice (Swiss SPF); conditions: ip, 168 h; Escherichia coli 65161 i.p.; method of administration intraperitoneal
[11] = blood (serum) contents after intramuscular administration in rabbits; assay type: in vivo, rabbits (Nieuw Zeelander); conditions: rabbit, im, 50 mg/kg intramuscular, average, read-out: Serum level
Experimental: (§1) c. […] The rabbits were provided with "Cunicon" and water ad libitum. Each test group consisted of 3 rabbits. The dose was 50 mg/kg using water as the vehicle. […] The contents of the compound in the samples were determined microbiologically (only microbiologically detected amounts, i.e. anti-bacterially active concentrations only have been indicated).

[12] = secretion of compound in urine after intramuscular administration in rabbits; assay type: in vivo, rabbits (Nieuw Zeelander); conditions: rabbit, im, 50 mg/kg intramuscular, average, read-out: Secretion of compound in urine in % of the administered dose
Experimental: as §1

[13] = percentages of bound serum by ultrafiltration and dialysis; assay type: in vitro ADME; conditions: read-out: percentage of bound serum (converted)
[14] = in vivo; conditions: mouse, ip
[15] = system: Staphylococcus aureus A355 (penicillinase-producing); experiment: MIC, agar serial dilution test; conditions: 24 h
[16] = system: Staphylococcus aureus L160a (penicillinase-producing); experiment: MIC, agar serial dilution test; conditions: 24 h
[17] = system: Staphylococcus aureus A 321; experiment: in vivo infection test in mice; conditions: A321, in Mus musculus
[18] = system: Staphylococcus aureus A 2001; experiment: in vivo infection test in mice; conditions: A2001, in Mus musculus
[19] = system: Staphylococcus aureus A 2000; experiment: in vivo infection test in mice; conditions: A2000, in Mus musculus
[20] = system: Salmonella typhi murium R 172; experiment: in vivo infection test in mice; conditions: Salmonella enterica, in Mus musculus
[21] = system: Pseudomonas aeruginosa A 1058; experiment: in vivo infection test in mice; conditions: A1058, in Mus musculus
[22] = system: Proteus mirabilis O.T.; experiment: in vivo infection test in mice; conditions: in Mus musculus
[23] = system: Staphylococcus aureus A 2001; experiment: protection test in mice, Staphylococcus aureus; conditions: Staphylococcus aureus, A2001, in Mus musculus, sc, 168 h
[24] = system: Staphylococcus aureus A 321; experiment: prophylactic experiment against an infection in mice; assay type: in vivo, female mice (Swiss)
Description: B. Activity of the compound of example III in a prophylactic experiment against an infection with Staphylococcus aureus A 321. […] Administered doses: Tested compound dissolved in physiological NaCl-solution. Group A: one dose administered four hours before the intraperitoneal infection Group B: one dose administered two hours before the intraperitoneal infection.

[25] = in vivo; design: species or system rabbits; conditions: rabbit, im, 50 mg/kg; for blood level: 4 h
Description: C. Serum levels of the tested compound and dicloxacillin.

[26] = system: serum protein; experiment: binding to serum protein; assay type: in vitro ADME
[27] = binding to serum protein; assay type: in vitro ADME; conditions: serum protein; read-out: extent bound to serum protein
[28] = system: test organisms; experiment: M.I.C. comparison with dicloxacillin; assay type: cell-based; conditions: compared with dicloxacillin
Experimental: Peak blood levels of the two drugs were reached after 1 hour with the tested compound giving levels of 5.4 μg/ml and dicloxacillin 27 μg/ml. After 4 hours, these levels were 2.2 μg/ml and 7.1 μg/ml respectively. […] However, the M.I.C. values for the tested compound were approximately 5 - 10 times less so that the overall result was better and this was reflected in the in vivo results.

[29] = ATCC6633, Bacillus subtilis ATCC 6633, 24 hours at 37° C, read-out: MIC
[30] = Staphylococcus aureus A55, 24 hours at 37° C, read-out: MIC
[31] = Staphylococcus aureus A321, 24 hours at 37° C, read-out: MIC
[32] = Streptococcus haemolyticus A266, 24 hours at 37° C, read-out: MIC
[33] = L80, Streptococcus faecalis L 80, 24 hours at 37° C, read-out: MIC
[34] = L54, Diplococcus pneumoniae L 54, 24 hours at 37° C, read-out: MIC
[35] = Pasteurella multocida A723, 24 hours at 37° C, read-out: MIC
[36] = Klebsiella pneumoniae A809, 24 hours at 37° C, read-out: MIC
[37] = A321, ip, 2 h, Group B: one dose two hours before i.p. infection, administration i.p.
[38] = A321, ip, 4 h, Group A: one dose four hours before i.p. infection, administration i.p.
[39] = A321, po, 2 h, Group B: one dose two hours before i.p. infection, administration per os
[40] = A321, po, 4 h, Group A: one dose four hours before i.p. infection, administration per os

SMILES: CC(=O)OCC1=C(C(=O)O)N2C(=O)[C@@H](NC(=O)Cc3cccs3)[C@H]2SC1 [Cephalotin, reference compound]
- MIC ([1]; Bacillus subtilis, ATCC6633, 24 h): 0.03 µg/mL (≈ 0.0757 µM)
- MIC ([2]; Staphylococcus aureus, A55, 24 h): 0.25 µg/mL (≈ 0.631 µM)
- MIC ([3]; Staphylococcus aureus, A321, 24 h): 0.25 µg/mL (≈ 0.631 µM)
- MIC ([4]; Streptococcus, A266, 24 h): 0.06 µg/mL (≈ 0.151 µM)
- MIC ([5]; L80, 24 h): 25 µg/mL (≈ 63.1 µM)
- MIC ([6]; L54, 24 h): 0.25 µg/mL (≈ 0.631 µM)
- MIC [7]: 6 µg/mL (≈ 15.1 µM)
- MIC ([8]; Pasteurella multocida, A723, 24 h): 0.25 µg/mL (≈ 0.631 µM)
- MIC ([9]; Klebsiella pneumoniae, A809, 24 h): 0.5 µg/mL (≈ 1.26 µM)
- ED50 [10]: 115 mg/kg
- concentration at 0.5 h ([11]; after 1/2 hr.): 33900 ng/mL
- concentration at 0.25 h ([11]; after 1/4 hr.): 73800 ng/mL
- concentration at 1 h ([11]; after 1 hr.): 8500 ng/mL
- concentration at 2 h ([11]; after 2 hrs.): < 1100 ng/mL
- concentration at 4 h ([11]; after 4 hrs.): < 1000 ng/mL
- dose excreted at 6 h ([12]; after 6 hrs.): 22.2%
- dose excreted at 27 h ([12]; after 27 hrs.): 26.9%
- fraction unbound ([13]; dialysis): ~0.3
- fraction unbound ([13]; ultrafiltration): ~0.3
- LD50 [14]: 6000 to 8000 mg/kg
- MIC [15]: 1 µg/mL (≈ 2.52 µM)
- MIC [16]: 1 µg/mL (≈ 2.52 µM)
- ED50 ([17]; ip): 1.9 mg/kg
- ED50 ([17]; po): 14.7 mg/kg
- ED50 ([17]; sc): 16.2 mg/kg
- ED50 ([18]; ip): 27.1 mg/kg
- ED50 ([18]; po): > 68.1 mg/kg
- ED50 ([19]; ip): 20 mg/kg
- ED50 ([19]; po): 147 mg/kg
- ED50 ([19]; sc): 110 mg/kg
- ED50 ([20]; ip): 79.4 mg/kg
- ED50 ([20]; sc): ~200 mg/kg
- ED50 ([21]; ip): > 215 mg/kg
- ED50 ([21]; sc): > 215 mg/kg
- ED50 ([22]; ip): 79.4 mg/kg
- ED50 ([22]; sc): 68.1 mg/kg
- ED50 [23]: 43 mg/kg

SMILES: Cc1onc(-c2c(Cl)cccc2Cl)c1C(=O)N[C@@H]1C(=O)N2[C@@H]1SC(C)(C)[C@@H]2C(=O)O [Dicloxacillin, reference compound]
- MIC [1, 29]: 0.12 µg/mL (≈ 0.255 µM)
- MIC [2, 30]: 0.06 µg/mL (≈ 0.128 µM)
- MIC [3, 31]: 0.12 µg/mL (≈ 0.255 µM)
- MIC [4, 32]: 0.06 µg/mL (≈ 0.128 µM)
- MIC [5, 33]: 12.5 µg/mL (≈ 26.6 µM)
- MIC [6, 34]: 0.5 µg/mL (≈ 1.06 µM)
- MIC [7]: > 100 µg/mL
- MIC [8, 35]: 6 µg/mL (≈ 12.8 µM)
- MIC [9, 36]: 25 µg/mL (≈ 53.2 µM)
- ED50 [24, 37]: 46.5 to 100 mg/kg
- ED50 [24, 38]: < 21.5 mg/kg
- ED50 [24, 39]: 215 to 465 mg/kg
- ED50 [24, 40]: 46.5 to 100 mg/kg
- Cmax at 1 h [25]: 27000 ng/mL
- Tmax [25]: 1 h
- concentration at 1 h [25]: 27000 ng/mL
- concentration at 2 h [25]: 18800 ng/mL
- concentration at 4 h [25]: 7100 ng/mL
- blood level [25]: 7100 ng/mL
- binding to serum protein (in words) ([26]; serum protein): almost completely bound to serum protein
- MIC [15]: 0.5 µg/mL (≈ 1.06 µM)
- MIC [16]: 0.25 µg/mL (≈ 0.532 µM)
- ED50 ([17]; po): 92.6 mg/kg
- ED50 ([17]; sc): 126 mg/kg
- ED50 ([18]; ip): 1.71 mg/kg
- ED50 ([18]; po): 110 mg/kg
- ED50 ([18]; sc): 133 mg/kg
- ED50 ([19]; ip): 5.84 mg/kg
- ED50 ([19]; po): 92.6 mg/kg
- ED50 ([19]; sc): 92.6 mg/kg

SMILES: CC(=O)OCC1=C(C(=O)O)N2C(=O)C(NC(=O)Cc3cc(-c4c(Cl)cccc4Cl)no3)C2SC1 (centres unmarked) [Example III, Sodium salt of 7-{[3-(2,6-dichlorophenyl)-isoxazol-5-yl]acetamido}cephalosporanic acid]
- MIC [1, 29]: ~0.007 µg/mL
- MIC [2, 30]: 0.015 µg/mL
- MIC [3, 31]: ~0.007 µg/mL
- MIC [4, 32]: ~0.007 µg/mL
- MIC [5, 33]: 0.5 µg/mL
- MIC [6, 34]: 0.007 µg/mL
- MIC [7]: 1 µg/mL
- MIC [8, 35]: 1 µg/mL
- MIC [9, 36]: 12.5 µg/mL
- ED50 [24, 37]: < 21.5 mg/kg
- ED50 [24, 38]: 21.5 to 46.5 mg/kg
- ED50 [24, 39]: < 21.5 mg/kg
- ED50 [24, 40]: ~465 mg/kg
- Cmax at 1 h [25]: 5400 ng/mL
- Tmax [25]: 1 h
- concentration at 1 h [25]: 5400 ng/mL
- concentration at 4 h [25]: 2200 ng/mL
- blood level [25]: 2200 ng/mL
- fraction bound to serum protein [27]: ~0.5
- amount of free drug in the serum compared with dicloxacillin ([26]; 50 mg/kg intramuscular, rabbits): of the same order
- M.I.C. values, times less than dicloxacillin [28]: 5 - 10 times
- MIC [15]: 0.12 µg/mL
- MIC [16]: 0.06 µg/mL
- ED50 ([17]; po): 61.9 mg/kg
- ED50 ([17]; sc): 5.11 mg/kg
- ED50 ([18]; ip): 2.87 mg/kg
- ED50 ([18]; po): ~200 mg/kg
- ED50 ([18]; sc): > 215 mg/kg
- ED50 ([19]; ip): 1.78 mg/kg
- ED50 ([19]; po): > 215 mg/kg
- ED50 ([19]; sc): 75 mg/kg
- ED50 ([20]; ip): ~200 mg/kg
- ED50 ([21]; ip): > 215 mg/kg
- ED50 ([22]; ip): ~200 mg/kg
